Reference: US9302999B2, “Substituted triazoles as herbicides” (E. I. DU PONT DE NEMOURS AND COMPANY, priority 2012, dated 2016)

Key:
Format in all cases: in vivo
[1] = tested on: canarygrass (Phalaris minor); assay: Test D pre-/postemergence: canarygrass
Outline: (§1)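 Pre- and postemergence herbicide screen. Soil for pre: silt loam; post medium: peat moss, vermiculite, wetting agent, starter nutrients. Plant stage at post: 1- to 4-leaf. Readout: visual % control, 14–21 days.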

[2] = tested on: field poppy (Papaver rhoeas); assay: Test D pre-/postemergence: field poppy
Outline: as §1

[3] = tested on: deadnettle (henbit deadnettle, Lamium amplexicaule); assay: Test D pre-/postemergence: deadnettle
Outline: as §1

[4] = tested on: lambsquarters (Chenopodium album); assay: Test D pre-/postemergence: lambsquarters
Outline: as §1

corn (Zea mays) = assay: Test F pre-/postemergence: corn
Outline: (§2)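 Preemergence treatment of seeds sown in silt loam soil, and postemergence treatment of plants 2–18 cm tall (1- to 4-leaf stage), with compounds in non-phytotoxic solvent plus surfactant. Greenhouse 14–21 days, then visual rating versus controls on 0–100 scale (100 = complete control).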

[5] = tested on: crabgrass, large (large crabgrass, Digitaria sanguinalis); assay: Test F pre-/postemergence: crabgrass, large; conditions: Preemergence
Outline: as §2

[6] = tested on: arrowleaf sida (Sida rhombifolia); assay: Test F pre-/postemergence: arrowleaf sida
Source text: Seeds of plant species selected from corn (Zea mays), soybean (Glycine max), velvetleaf (Abutilon theophrasti), lambsquarters (Chenopodium album), poinsettia, wild (wild poinsettia, Euphorbia heterophylla), pigweed, palmer (palmer pigweed, Amaranthus palmeri), waterhemp (common waterhemp, Amaranthus rudis), surinam grass (Brachiaria decumbens), crabgrass, Brazil (Brazilian crabgrass, Digitaria horizontalis), panicum, fall (fall panicum Panicum dichotomiflorum), crabgrass, large (large crabgrass, Digitaria sanguinalis), foxtail, giant (giant foxtail, Setaria faberii), foxtail, green (green foxtail Setaria viridis), goosegrass (Eleusine indica), ragweed (common ragweed, Ambrosia elatior), barnyardgrass (Echinochloa crus-galli), sandbur (southern sandbur, Cenchrus echinatus), arrowleaf sida (Sida rhombifolia), ryegrass, Italian (Italian ryegrass, Lolium multiflorum), dayflower, VA (Virginia (VA) dayflower, Commelina virginica), field bindweed (Convolvulus arvensis), cocklebur (common cocklebur, Xanthium strumarium), morningglory (Ipomoea coccinea), nightshade (eastern black nightshade, Solanum ptycanthum), kochia (Kochia scoparia), nutsedge, yellow (yellow nutsedge, Cyperus esculentus), johnsongrass (Sorghum halepense), smartweed (ladysthumb smartweed, Polygonum persicaria), and beggarticks (hairy beggarticks, Bidens pilosa), were planted into a silt loam soil and treated preemergence with test chemicals formulated in a non-phytotoxic solvent mixture which included a surfactant. At the same time, plants selected from these crop and weed species and also pigweed (Amaranthus retroflexus), waterhemp_RES1 (ALS/Triazine resistant common waterhemp, Amaranthus rudis) and waterhemp_RES2 (ALS/HPPD resistant common waterhemp, Amaranthus rudis) were planted in pots containing a planting medium comprising spaghnum peat moss, vermiculite, wetting agent and starter nutrients treated with postemergence applications of some of the test chemicals formulated in the same manner. Plants ranged in height from 2 to 18 cm for postemergence treatments (1- to 4-leaf stage).
Treated plants and controls were maintained in a greenhouse for 14 to 21 days, after which time all species were compared to controls and visually evaluated. Plant response ratings, summarized in Table E, are based on a scale of 0 to 100 where 0 is no effect and 100 is complete control. A dash (-) response means no test result.

[7] = Postemergence, 31 g ai/ha, scale 0 to 100 (0 no effect, 100 complete control)
[8] = Postemergence, 62 g ai/ha, scale 0 to 100 (0 no effect, 100 complete control)
[9] = Postemergence, 125 g ai/ha, scale 0 to 100, 0 no effect, 100 complete control
[10] = Postemergence, 16 g ai/ha, scale 0 to 100
[11] = Preemergence, 16 g ai/ha, scale 0 to 100, 0 no effect, 100 complete control
[12] = Preemergence, 31 g ai/ha, scale 0 to 100, 0 no effect, 100 complete control
[13] = Preemergence, 62 g ai/ha, scale 0 to 100
[14] = Preemergence, 125 g ai/ha, scale 0 to 100
[15] = Preemergence, 250 g ai/ha, scale 0 to 100
[16] = 16 g ai/ha, scale 0 to 100, 0 no effect, 100 complete control
[17] = 31 g ai/ha, scale 0 to 100, 0 no effect, 100 complete control
[18] = Postemergence, 250 g ai/ha, scale 0 to 100
[19] = Postemergence, 31 g ai/ha, scale 0 to 100
[20] = Postemergence, 125 g ai/ha, scale 0 to 100

How did the “Plant response rating: Canarygrass” value [1, 7] turn out when Cc1nn(-c2ccc(C(F)(F)F)c(F)c2)nc1Oc1ccnc(C(F)(F)F)c1 [Compound 148] was run?
Its value is 30.

And the “Plant response rating: Canarygrass” value [1, 8]?
The value was 20.

What about the “Plant response rating: Canarygrass” value [1, 9] of the same compound?
The value was 70.

What about the “Plant response rating, Canarygrass” value [1, 10] of the same compound?
Its value is 10.

What about the “Plant response rating, Canarygrass” value [1, 11] of the same compound?
Its value is 0.

And the “Plant response rating, Canarygrass” value [1, 12]?
Its value is 50.

And the “Plant response rating, Canarygrass” value [1, 13]?
The value was 60.

What about the “Plant response rating, Canarygrass” value [1, 14] of the same compound?
The value was 100.

What about the “Plant response rating: Field Poppy” value [2, 7] of the same compound?
The value was 100.

What about the “Plant response rating: Field Poppy” value [2, 8] of the same compound?
The value was 95.

And the “Plant response rating: Field Poppy” value [2, 9]?
Its value is 100.

And the “Plant response rating, Field Poppy” value [2, 10]?
Its value is 90.

What about the “Plant response rating, Field Poppy” value [2, 11] of the same compound?
Its value is 10.

What about the “Plant response rating, Field Poppy” value [2, 12] of the same compound?
Its value is 70.

What about the “Plant response rating, Field Poppy” value [2, 13] of the same compound?
Its value is 100.

And the “Plant response rating, Field Poppy” value [2, 14]?
The value was 95.

What about the “Plant response rating: Deadnettle” value [3, 7] of the same compound?
The value was 65.

What about the “Plant response rating: Deadnettle” value [3, 8] of the same compound?
The value was 100.

And the “Plant response rating: Deadnettle” value [3, 9]?
The value was 100.

And the “Plant response rating, Deadnettle” value [3, 10]?
Its value is 70.

And the “Plant response rating, Deadnettle” value [3, 11]?
The value was 10.

What about the “Plant response rating, Deadnettle” value [3, 12] of the same compound?
The value was 45.

What about the “Plant response rating, Deadnettle” value [3, 13] of the same compound?
Its value is 100.

What about the “Plant response rating, Deadnettle” value [3, 14] of the same compound?
The value was 100.

And the “Plant response rating: Lambsquarters” value [4, 7]?
Its value is 85.

What about the “Plant response rating: Lambsquarters” value [4, 8] of the same compound?
The value was 95.

And the “Plant response rating: Lambsquarters” value [4, 9]?
Its value is 95.

What about the “Plant response rating, Lambsquarters” value [4, 10] of the same compound?
Its value is 85.

And the “Plant response rating, Lambsquarters” value [4, 11]?
Its value is 35.

What about the “Plant response rating, Lambsquarters” value [4, 12] of the same compound?
Its value is 40.

And the “Plant response rating, Lambsquarters” value [4, 13]?
The value was 80.

What about the “Plant response rating, Lambsquarters” value [4, 14] of the same compound?
Its value is 90.

What about the “Plant response rating, Corn” value (corn (Zea mays); [11]) of the same compound?
The value was 0.

What about the “Plant response rating, Corn” value (corn (Zea mays); [12]) of the same compound?
Its value is 0.

What about the “Plant response rating, Corn” value (corn (Zea mays); [13]) of the same compound?
Its value is 0.

What about the “Plant response rating, Corn” value (corn (Zea mays); [14]) of the same compound?
The value was 0.

What about the “Plant response rating, Corn” value (corn (Zea mays); [15]) of the same compound?
The value was 5.

And the “Plant response rating, Crabgrass, Large” value [5, 16]?
The value was 95.

And the “Plant response rating, Crabgrass, Large” value [5, 17]?
The value was 100.

What about the “Plant response rating, Crabgrass, Large” value ([5]; 62 g ai/ha, scale 0 to 100) of the same compound?
Its value is 100.

And the “Plant response rating, Crabgrass, Large” value ([5]; 125 g ai/ha, scale 0 to 100)?
Its value is 100.

And the “Plant response rating, Crabgrass, Large” value ([5]; 250 g ai/ha, scale 0 to 100)?
The value was 100.

And the “Plant response rating, Arrowleaf Sida” value [6, 11]?
Its value is 0.

What about the “Plant response rating, Arrowleaf Sida” value [6, 12] of the same compound?
The value was 0.

And the “Plant response rating, Arrowleaf Sida” value [6, 13]?
The value was 0.

What about the “Plant response rating, Arrowleaf Sida” value [6, 14] of the same compound?
Its value is 0.

And the “Plant response rating, Arrowleaf Sida” value [6, 15]?
The value was 0.

Which results are given for CCc1nn(-c2ccc(C(F)(F)F)cc2)nc1Cc1ccnc(C(F)(F)F)c1 [Compound 155]?
Plant response rating: Canarygrass [1, 7]: 70; Plant response rating: Canarygrass [1, 8]: 70; Plant response rating: Canarygrass [1, 9]: 85; Plant response rating, Canarygrass [1, 10]: 20; Plant response rating, Canarygrass [1, 11]: 10; Plant response rating, Canarygrass [1, 12]: 70; Plant response rating, Canarygrass [1, 13]: 100; Plant response rating, Canarygrass [1, 14]: 100; Plant response rating: Field Poppy [2, 7]: 95; Plant response rating: Field Poppy [2, 8]: 100; Plant response rating: Field Poppy [2, 9]: 100; Plant response rating, Field Poppy [2, 10]: 80; Plant response rating, Field Poppy [2, 11]: 80; Plant response rating, Field Poppy [2, 12]: 95; Plant response rating, Field Poppy [2, 13]: 95; Plant response rating, Field Poppy [2, 14]: 100; Plant response rating: Deadnettle [3, 7]: 75; Plant response rating: Deadnettle [3, 8]: 90; Plant response rating: Deadnettle [3, 9]: 100; Plant response rating, Deadnettle [3, 10]: 75; Plant response rating, Deadnettle [3, 11]: 5; Plant response rating, Deadnettle [3, 12]: 5; Plant response rating, Deadnettle [3, 13]: 80; Plant response rating, Deadnettle [3, 14]: 95; Plant response rating: Lambsquarters [4, 7]: 95; Plant response rating: Lambsquarters [4, 8]: 90; Plant response rating: Lambsquarters [4, 9]: 95; Plant response rating, Lambsquarters [4, 10]: 95; Plant response rating, Lambsquarters [4, 11]: 20; Plant response rating, Lambsquarters [4, 12]: 55; Plant response rating, Lambsquarters [4, 13]: 90; Plant response rating, Lambsquarters [4, 14]: 90; Plant response rating, Corn (corn (Zea mays); [13]): 10; Plant response rating, Corn (corn (Zea mays); [14]): 15; Plant response rating, Corn (corn (Zea mays); [15]): 15; Plant response rating, Crabgrass, Large ([5]; 62 g ai/ha, scale 0 to 100): 100; Plant response rating, Crabgrass, Large ([5]; 125 g ai/ha, scale 0 to 100): 100; Plant response rating, Crabgrass, Large ([5]; 250 g ai/ha, scale 0 to 100): 100; Plant response rating, Arrowleaf Sida [6, 13]: 10; Plant response rating, Arrowleaf Sida [6, 14]: 40; Plant response rating, Arrowleaf Sida [6, 15]: 75

For CCc1nn(-c2ccc(F)c(F)c2)nc1Oc1ccnc(C(F)(F)F)c1 [Compound 171], which “Plant response rating, Corn” value (corn (Zea mays); [11]) is on record?
Its value is 0.

And the “Plant response rating, Corn” value (corn (Zea mays); [12])?
Its value is 0.

What about the “Plant response rating, Corn” value (corn (Zea mays); [13]) of the same compound?
The value was 0.

And the “Plant response rating, Corn” value (corn (Zea mays); [14])?
Its value is 0.

And the “Plant response rating, Corn” value (corn (Zea mays); [15])?
Its value is 5.

And the “Plant response rating, Crabgrass, Large” value [5, 16]?
Its value is 75.

And the “Plant response rating, Crabgrass, Large” value [5, 17]?
The value was 98.

What about the “Plant response rating, Crabgrass, Large” value ([5]; 62 g ai/ha, scale 0 to 100) of the same compound?
The value was 98.

And the “Plant response rating, Crabgrass, Large” value ([5]; 125 g ai/ha, scale 0 to 100)?
The value was 100.

And the “Plant response rating, Crabgrass, Large” value ([5]; 250 g ai/ha, scale 0 to 100)?
The value was 100.

What about the “Plant response rating, Arrowleaf Sida” value [6, 11] of the same compound?
Its value is 0.

And the “Plant response rating, Arrowleaf Sida” value [6, 12]?
The value was 0.

And the “Plant response rating, Arrowleaf Sida” value [6, 13]?
The value was 15.

What about the “Plant response rating, Arrowleaf Sida” value [6, 14] of the same compound?
Its value is 30.

And the “Plant response rating, Arrowleaf Sida” value [6, 15]?
Its value is 60.

What does the source list for CCCc1nn(-c2ccc(F)c(F)c2)nc1Oc1ccnc(C(F)(F)F)c1 [Compound 172]?
Plant response rating, Corn (corn (Zea mays); [18]): 30; Plant response rating, Corn (corn (Zea mays); [19]): 15; Plant response rating, Corn (corn (Zea mays); [20]): 20; Plant response rating, Corn (corn (Zea mays); [12]): 0; Plant response rating, Corn (corn (Zea mays); [14]): 15; Plant response rating, Corn (corn (Zea mays); [15]): 15; Plant response rating, Crabgrass, Large [5, 17]: 100; Plant response rating, Crabgrass, Large ([5]; 125 g ai/ha, scale 0 to 100): 100; Plant response rating, Crabgrass, Large ([5]; 250 g ai/ha, scale 0 to 100): 100; Plant response rating, Arrowleaf Sida [6, 18]: 100; Plant response rating, Arrowleaf Sida [6, 19]: 65; Plant response rating, Arrowleaf Sida [6, 20]: 90; Plant response rating, Arrowleaf Sida [6, 12]: 30; Plant response rating, Arrowleaf Sida [6, 14]: 95; Plant response rating, Arrowleaf Sida [6, 15]: 100
